According to patent US9643936B1, “Form of tribenuron-methyl, a process for its preparation and use of the same” (ROTAM AGROCHEM INTERNATIONAL COMPANY LIMITED, priority 2015, dated 2017):

What was measured:
Type in all cases: physicochemical
[1] = Determining water solubility (pH 7 buffer, HPLC of supernatant); settings: for Concentration measured by HPLC after treatment, %: pH 7 buffer, 20° C.
Experimental: A stock pH 7 buffer solution was prepared by adding aqueous sodium hydroxide solution (0.1 M, 145 mL) to aqueous potassium dihydrogen phosphate solution (0.1 M, 250 mL), and then adding sufficient distilled water to adjust the final volume to 500 mL. At least 1 time and up to about 5 times the amount of tribenuron-methyl needed for saturation was added to a mixing vessel containing stock buffer solution at the test temperature (e.g., 20° C.). The mixture was magnetically stirred in the dark while being maintained at the test temperature. Samples were periodically removed for analysis. The samples were centrifuged using a high speed, temperature-controlled centrifuge at the test temperature for about 20 minutes at >12000 G to remove suspended particles. An aliquot of each supernatant was taken for analysis. The concentration of tribenuron-methyl in the supernatant was determined by a high pressure liquid chromatography (HPLC) with a reversed phase chromatography column and UV detection. The method should include development of best-fit calibration curves based on at least three standards using linear regression analysis. Samples were successively withdrawn from the mixing vessel and analyzed until three successive samples show little or no variation in concentration. The test is preferably replicated to ensure accuracy.

[2] = Cleanout test (residual tribenuron-methyl in acetonitrile extract of rinsed bottle); settings: for Cleanout rating, % (concentration of tribenuron-methyl in the acetonitrile solution): lower rating = more effective cleanout
Experimental: The cleanout test was conducted by dispersing in water a sample to produce a concentration that is normally used when applying the herbicide: 25% tribenuron-methyl. The sample was added to tap water (300 mL) in a 400 mL beaker and magnetically stirred for 2 minutes. The mixture was then stirred for 2 minutes, whereupon the resulting dispersion was dispensed in three 100 mL aliquots to 4-oz (118 mL) polyethylene bottles. The bottles were capped, inverted twice and allowed to stand overnight.
After standing overnight, each individual bottle was inverted twice and the liquid contents were then poured out. Tap water (10 mL) was added and the bottle was inverted until all sediment was re-suspended, whereupon the contents were poured out. Tap water (100 mL) was added and the bottle was inverted twice and then allowed to stand undisturbed for 10 minutes. The bottle was inverted twice more and the contents were poured out. Acetonitrile (10 mL) was added to the bottle to extract any remaining material. The acetonitrile solution was analyzed by reversed-phase liquid chromatography with UV detection. The cleanout rating (the concentration of tribenuron-methyl herbicide in the acetonitrile solution) is reported in % in Table 6 below.

[3] = Viscosity (stated finding, no method given)
[4] = OD formulation, measured vs original concentration 40%
[5] = OD formulation, original concentration 40%
[6] = SG formulation, measured vs original concentration 25%
[7] = SG formulation, original concentration 25%
[8] = WG formulation, measured vs original concentration 25%
[9] = WG formulation, original concentration 25%

SMILES | Solubility [1, 4] [%] | Concentration measured by HPLC after treatment, % [1, 5] [%] | Solubility [1, 6] [%] | Concentration measured by HPLC after treatment, % [1, 7] [%] | Solubility [1, 8] [%] | Concentration measured by HPLC after treatment, % [1, 9] [%] | Cleanout rating, % (concentration of tribenuron-methyl in the acetonitrile solution) ([2]; OD formulation, prepared in Example 1) [%] | Cleanout rating, % (concentration of tribenuron-methyl in the acetonitrile solution) ([2]; SG formulation, prepared in Example 1) [%] | Cleanout rating, % (concentration of tribenuron-methyl in the acetonitrile solution) ([2]; WG formulation) [%] | Viscosity (in words) ([3]; listed as tribenuron-methyl in amorphous state) | Solubility (in words) ([1]; compared with amorphous tribenuron-methyl) | Cleanout rating, % (concentration of tribenuron-methyl in the acetonitrile solution) ([2]; OD formulation) [%] | Cleanout rating, % (concentration of tribenuron-methyl in the acetonitrile solution) ([2]; SG formulation) [%] | Cleanout properties (in words) ([2]; compared with known amorphous tribenuron-methyl product) | Viscosity (in words) ([3]; listed as crystalline modification I of tribenuron-methyl)
COC(=O)c1ccccc1S(=O)(=O)NC(=O)N(C)c1nc(C)nc(OC)n1 [Amorphous tribenuron-methyl (prepared in Example 1)] [methyl 2-[4-methoxy-6-methyl-1,3,5-triazin-2-yl(methyl)carbamoylsulfamoyl]benzoate, reference compound] | 35 | 14 | 60 | 15 | 48 | 12 | 26 | 10 | 13 | highly viscous |  |  |  |  | 
COC(=O)c1ccccc1S(=O)(=O)NC(=O)N(C)c1nc(C)nc(OC)n1 [Tribenuron-methyl, crystalline modification I, 98% (prepared] [methyl 2-[4-methoxy-6-methyl-1,3,5-triazin-2-yl(methyl)carbamoylsulfamoyl]benzoate] | 88 | 35 | 99.6 | 24.9 | 92 | 23 |  |  | 2 |  | significant increase in its solubility | 5 | 0.1 | markedly superior cleanout properties | significant decrease in its viscosity
